According to the NIST ThermoML archive (doi:10.1021/je7005067):
Numbers after ± are expanded uncertainties.

Settings: Liquid

CCCCC(CC)COC(=O)c1ccccc1C(=O)OCC(CC)CCCC (configuration not stated) [bis(2-ethylhexyl) 1,2-benzenedicarboxylate]
Settings | vapor or sublimation pressure [kPa]
423.15 K | 0.008 ± 0.0023
433.15 K | 0.017 ± 0.0031
443.15 K | 0.0326 ± 0.0051
448.15 K | 0.0419 ± 0.0065
453.15 K | 0.0655 ± 0.01
463.15 K | 0.1154 ± 0.018
473.15 K | 0.1874 ± 0.029
